# Measured values from ChEMBL document CHEMBL4138123, “Design, synthesis and biological evaluation of novel pyrazolochalcones as potential modulators of PI3K/Akt/mTOR pathway and inducers of apoptosis in breast cancer cells” (Eur J Med Chem, 2017).
# Legend:
# NCI-H322M = experiment: Cytotoxicity against human NCI-H322M cells assessed as growth inhibition after 48 hrs by sulforhodamine B assay; format: functional
# HCC 2998 = experiment: Cytotoxicity against human HCC2998 cells assessed as growth inhibition after 48 hrs by sulforhodamine B assay; format: functional; conditions: HCC 2998, 48 h
# SW-620 [1] = experiment: Cytotoxicity against human SW620 cells assessed as growth inhibition after 48 hrs by sulforhodamine B assay; format: functional; conditions: SW-620, 48 h
# SK-MEL-2 = experiment: Cytotoxicity against human SK-MEL-2 cells assessed as growth inhibition after 48 hrs by sulforhodamine B assay; format: functional; conditions: SK-MEL-2, 48 h
# UACC-257 = experiment: Cytotoxicity against human UACC257 cells assessed as growth inhibition after 48 hrs by sulforhodamine B assay; format: functional; conditions: UACC-257, 48 h
# SK-OV-3 = experiment: Cytotoxicity against human SKOV3 cells assessed as growth inhibition after 48 hrs by sulforhodamine B assay; format: functional; conditions: SK-OV-3, 48 h
# MCF7 [2] = experiment: Cytotoxicity against human MCF7 cells assessed as growth inhibition after 48 hrs by MTT assay; format: functional, cell-based; conditions: MCF7, 48 h
# OVCAR-5 = experiment: Cytotoxicity against human OVCAR5 cells assessed as cell growth at 0.01 uM after 48 hrs by sulforhodamine B assay relative to control; format: functional; conditions: OVCAR-5, 48 h, read-out: Activity
# OVCAR-4 = experiment: Cytotoxicity against human OVCAR4 cells assessed as cell growth at 0.01 uM after 48 hrs by sulforhodamine B assay relative to control; format: functional; conditions: OVCAR-4, 48 h, read-out: Activity
# SF-268 [3] = experiment: Cytotoxicity against human SF268 cells assessed as cell growth at 0.01 uM after 48 hrs by sulforhodamine B assay relative to control; format: functional; conditions: SF-268, 48 h, read-out: Activity
# KM12 = experiment: Cytotoxicity against human KM12 cells assessed as cell growth at 0.01 uM after 48 hrs by sulforhodamine B assay relative to control; format: functional; conditions: KM12, 48 h, read-out: Activity
# COLO 205 = experiment: Cytotoxicity against human COLO205 cells assessed as cell growth at 0.01 uM after 48 hrs by sulforhodamine B assay relative to control; format: functional; conditions: COLO 205, 48 h, read-out: Activity
# HOP-62 = experiment: Cytotoxicity against human HOP62 cells assessed as cell growth at 0.01 uM after 48 hrs by sulforhodamine B assay relative to control; format: functional; conditions: HOP-62, 48 h, read-out: Activity
# MOLT-4 [4] = experiment: Cytotoxicity against human MOLT4 cells assessed as cell growth at 0.01 uM after 48 hrs by sulforhodamine B assay relative to control; format: functional; conditions: MOLT-4, 48 h, read-out: Activity
# MDA-MB-231 = experiment: Cytotoxicity against human MDA-MB-231 cells assessed as cell growth at 0.01 uM after 48 hrs by sulforhodamine B assay relative to control; format: functional; conditions: MDA-MB-231, 48 h, read-out: Activity
# BT-549 = experiment: Cytotoxicity against human BT549 cells assessed as cell growth at 0.01 uM after 48 hrs by sulforhodamine B assay relative to control; format: functional; conditions: BT-549, 48 h, read-out: Activity
# SW-620 [5] = experiment: Cytotoxicity against human SW620 cells assessed as cell growth at 0.1 uM after 48 hrs by sulforhodamine B assay relative to control; format: functional; conditions: SW-620, 48 h, read-out: Activity
# IGROV-1 = experiment: Cytotoxicity against human IGROV1 cells assessed as cell growth at 0.1 uM after 48 hrs by sulforhodamine B assay relative to control; format: functional; conditions: IGROV-1, 48 h, read-out: Activity
# CCRF-CEM = experiment: Cytotoxicity against human CCRF-CEM cells assessed as cell growth at 1 uM after 48 hrs by sulforhodamine B assay relative to control; format: functional; conditions: read-out: Activity
# MOLT-4 [6] = experiment: Cytotoxicity against human MOLT4 cells assessed as cell growth at 1 uM after 48 hrs by sulforhodamine B assay relative to control; format: functional; conditions: MOLT-4, 48 h, read-out: Activity
# SF-268 [7] = experiment: Cytotoxicity against human SF268 cells assessed as cell growth at 1 uM after 48 hrs by sulforhodamine B assay relative to control; format: functional; conditions: SF-268, 48 h, read-out: Activity
# SNB-19 = experiment: Cytotoxicity against human SNB19 cells assessed as cell growth at 1 uM after 48 hrs by sulforhodamine B assay relative to control; format: functional; conditions: SNB-19, 48 h, read-out: Activity
# SK-MEL-28 = experiment: Cytotoxicity against human SK-MEL-28 cells assessed as cell growth at 1 uM after 48 hrs by sulforhodamine B assay relative to control; format: functional; conditions: SK-MEL-28, 48 h, read-out: Activity
# A498 = experiment: Cytotoxicity against human A498 cells assessed as cell growth at 1 uM after 48 hrs by sulforhodamine B assay relative to control; format: functional; conditions: A498, 48 h, read-out: Activity
# HL-60(TB) = experiment: Cytotoxicity against human HL-60(TB) cells assessed as cell growth at 10 uM after 48 hrs by sulforhodamine B assay relative to control; format: functional; conditions: HL-60, 48 h, read-out: Activity
# SR = experiment: Cytotoxicity against human SR cells assessed as cell growth at 10 uM after 48 hrs by sulforhodamine B assay relative to control; format: functional; conditions: read-out: Activity
# NCI-H23 = experiment: Cytotoxicity against human NCI-H23 cells assessed as cell growth at 10 uM after 48 hrs by sulforhodamine B assay relative to control; format: functional; conditions: NCI-H23, 48 h, read-out: Activity
# SW-620 [8] = experiment: Cytotoxicity against human SW620 cells assessed as cell growth at 10 uM after 48 hrs by sulforhodamine B assay relative to control; format: functional; conditions: SW-620, 48 h, read-out: Activity
# SF-268 [9] = experiment: Cytotoxicity against human SF268 cells assessed as cell growth at 10 uM after 48 hrs by sulforhodamine B assay relative to control; format: functional; conditions: SF-268, 48 h, read-out: Activity
# Malme-3M = experiment: Cytotoxicity against human MALME-3M cells assessed as cell growth at 10 uM after 48 hrs by sulforhodamine B assay relative to control; format: functional; conditions: read-out: Activity
# MCF7 [10] = experiment: Cytotoxicity against human MCF7 cells assessed as cell growth at 10 uM after 48 hrs by sulforhodamine B assay relative to control; format: functional; conditions: MCF7, 48 h, read-out: Activity
# T47D = experiment: Cytotoxicity against human T47D cells assessed as cell growth at 10 uM after 48 hrs by sulforhodamine B assay relative to control; format: functional; conditions: read-out: Activity
# A549 = experiment: Cytotoxicity against human A549/ATCC cells assessed as cell growth at 100 uM after 48 hrs by sulforhodamine B assay relative to control; format: functional; conditions: A549, 48 h, read-out: Activity
# NCI-H460 = experiment: Cytotoxicity against human NCI-H460 cells assessed as cell growth at 100 uM after 48 hrs by sulforhodamine B assay relative to control; format: functional; conditions: NCI-H460, 48 h, read-out: Activity
smiles,measurement,setting,value
COc1ccc(C(=O)/C=C/c2cc(-c3ccc4c(c3)OCO4)n[nH]2)cc1OC,TGI,NCI-H322M,7.3 µM
same,CC50,NCI-H322M; read-out: LC50 (the source's name),29.6 µM
same,LC50,HCC 2998,48.1 µM
same,TGI,HCC 2998,17.3 µM
same,"LC50 (lethal concentration, 50% net cell kill)",SW-620 [1],15.9 µM
same,TGI,SW-620 [1],4.81 µM
same,LC50 (concentration killing 50% of cells),SK-MEL-2,68 µM
same,TGI,SK-MEL-2,23.2 µM
same,LC50,UACC-257,56.4 µM
same,TGI,UACC-257,22.1 µM
same,LC50,SK-OV-3,> 100 µM
same,TGI,SK-OV-3,26.4 µM
same,IC50,MCF7 [2],2.5 µM
same,growth at 0.01 µM,OVCAR-5,96%
same,growth at 0.01 µM,OVCAR-4,96%
same,growth at 0.01 µM,SF-268 [3],93%
same,growth at 0.01 µM,KM12,99%
same,growth at 0.01 µM,COLO 205,102%
same,growth at 0.01 µM,HOP-62,95%
same,growth at 0.01 µM,MOLT-4 [4],97%
same,growth at 0.01 µM,MDA-MB-231,102%
same,growth at 0.01 µM,BT-549,102%
same,growth at 0.1 µM,SW-620 [5],95%
same,growth at 0.1 µM,IGROV-1,93%
same,growth at 1 µM,CCRF-CEM,85%
same,growth at 1 µM,MOLT-4 [6],96%
same,growth at 1 µM,SF-268 [7],92%
same,growth at 1 µM,SNB-19,79%
same,growth at 1 µM,SK-MEL-28,96%
same,growth at 1 µM,A498,72%
same,growth at 10 µM,HL-60(TB),3%
same,growth at 10 µM,SR,-13%
same,growth at 10 µM,NCI-H23,28%
same,growth at 10 µM,SW-620 [8],-43%
same,growth at 10 µM,SF-268 [9],-12%
same,growth at 10 µM,Malme-3M,41%
same,growth at 10 µM,MCF7 [10],14%
same,growth at 10 µM,T47D,22%
same,growth at 100 µM,A549,-14%
same,growth at 100 µM,NCI-H460,-81%
